What follows are molecules tested against T1, SIRT1 (Homo sapiens, UniProt Q96EB6) (assay: Trp mass spectrometry assay of SIRT1 activation). Conditions: Trp mass spectrometry assay; EC1.5 = concentration of test compound that results in 150% activation of SIRT1.
T1 sequence (Q96EB6 1-747): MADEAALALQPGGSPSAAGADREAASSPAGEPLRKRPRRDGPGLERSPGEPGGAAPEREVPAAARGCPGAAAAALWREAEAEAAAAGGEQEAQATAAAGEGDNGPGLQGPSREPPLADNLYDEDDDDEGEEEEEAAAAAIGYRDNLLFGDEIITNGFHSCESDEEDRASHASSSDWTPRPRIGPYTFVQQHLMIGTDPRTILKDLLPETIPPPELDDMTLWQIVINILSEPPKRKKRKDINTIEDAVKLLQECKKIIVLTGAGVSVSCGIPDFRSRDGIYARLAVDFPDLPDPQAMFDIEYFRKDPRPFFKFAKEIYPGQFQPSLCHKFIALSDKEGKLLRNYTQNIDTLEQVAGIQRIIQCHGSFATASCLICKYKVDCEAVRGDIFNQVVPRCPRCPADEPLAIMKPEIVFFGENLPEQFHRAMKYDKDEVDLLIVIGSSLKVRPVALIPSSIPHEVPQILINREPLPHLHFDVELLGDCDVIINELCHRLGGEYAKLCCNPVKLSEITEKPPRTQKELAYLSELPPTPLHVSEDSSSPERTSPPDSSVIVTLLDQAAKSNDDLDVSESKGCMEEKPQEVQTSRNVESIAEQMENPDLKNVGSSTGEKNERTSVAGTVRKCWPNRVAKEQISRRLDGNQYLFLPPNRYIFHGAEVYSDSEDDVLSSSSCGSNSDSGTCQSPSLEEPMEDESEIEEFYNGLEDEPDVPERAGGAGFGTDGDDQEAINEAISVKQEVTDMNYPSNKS
Format: biochemical
In short: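 N-terminal His-tagged human SIRT1 (10 nM, E. coli BL21(DE3)) with 0.5 μM Ac-RHKK(Ac)W-NH2 peptide and 120 μM βNAD+, 25 min at 25 °C in HEPES pH 7.5, formic acid stop. OAADPR or deacetylated peptide quantified by mass spectrometry; EC1.5 (50% activity increase over control) and Percent Maximum Activation reported.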

Compound	Tryp AVG EC1.5 (μM)
O=C(CCCC[C@@H]1SC[C@@H]2NC(=O)N[C@@H]21)NCCCCCC(=O)NCc1cn(-c2cccc(NC(=O)N3c4nc(-c5cccc(C(F)(F)F)c5)ccc4N4CC[C@H]3C4)c2)nn1 [Example 607]	A (A (EC1.5<1 μM))
O=C1OC2(c3ccc(O)cc3Oc3cc(O)ccc32)c2ccc(NC(=S)NCc3cn(C4=CC(NC(=O)N5c6nc(-c7cccc(C(F)(F)F)c7)ccc6N6CC[C@H]5C6)CC=C4)nn3)cc21 (stereo partly shown) [Example 608]	C (C (EC1.5>25 μM))
CC(C)(C)OC(=O)N1CCc2ccc(NC(=O)N3c4nc(-c5cccc(C(F)(F)F)c5)ccc4N4CC[C@H]3C4)cc2C1 [Example 609]	B (B (EC1.5 1-25 μM))
CC(C)(C)OC(=O)N1CCCc2ccc(NC(=O)N3c4nc(-c5cccc(C(F)(F)F)c5)ccc4N4CC[C@H]3C4)cc21 [Example 610]	B (B (EC1.5 1-25 μM))
CC(C)(C)OC(=O)N1CCc2cc(NC(=O)N3c4nc(-c5cccc(C(F)(F)F)c5)ccc4N4CC[C@H]3C4)ccc2C1 [Example 611]	A (A (EC1.5<1 μM))
O=C(NCCCN1CCOCC1)N1c2nc(-c3cccc(C(F)(F)F)c3)ccc2N2CC[C@H]1C2 [Example 612]	B (B (EC1.5 1-25 μM))
O=C(NCCc1ccncc1)N1c2nc(-c3cccc(C(F)(F)F)c3)ccc2N2CC[C@H]1C2 [Example 613]	B (B (EC1.5 1-25 μM))
O=C(NCCc1ccccn1)N1c2nc(-c3cccc(C(F)(F)F)c3)ccc2N2CC[C@H]1C2 [Example 614]	B (B (EC1.5 1-25 μM))
O=C(NCCc1cccnc1)N1c2nc(-c3cccc(C(F)(F)F)c3)ccc2N2CC[C@H]1C2 [Example 615]	B (B (EC1.5 1-25 μM))
O=C(NCCN1CCOCC1)N1c2nc(-c3cccc(C(F)(F)F)c3)ccc2N2CC[C@H]1C2 [Example 616]	B (B (EC1.5 1-25 μM))
O=C(Nc1cccc(C(F)(F)F)c1)N1c2nc(-c3cccc(C(F)(F)F)c3)ccc2N2CC[C@H]1C2 [Example 617]	A (A (EC1.5<1 μM))
O=C(Nc1cccc(-c2ccc(C(F)(F)F)cn2)c1)N1c2nc(-c3cccc(C(F)(F)F)c3)ccc2N2CC[C@H]1C2 [Example 618]	B (B (EC1.5 1-25 μM))
Cc1ccc(-c2cccc(NC(=O)N3c4nc(-c5cccc(C(F)(F)F)c5)ccc4N4CC[C@H]3C4)c2)cc1C [Example 619]	C (C (EC1.5>25 μM))
O=C1CN2C[C@H]1N(C(=O)Nc1ccccn1)c1nc(-c3cccc(C(F)(F)F)c3)ccc12 [Example 620]	B (B (EC1.5 1-25 μM))
Cc1cc(C)n(N)c1CC1C=CC(CCC(=O)NCc2cn(-c3cccc(NC(=O)N4c5nc(-c6cccc(C(F)(F)F)c6)ccc5N5CC[C@H]4C5)c3)nn2)=N1 (stereo partly shown) [Example 622]	C (C (EC1.5>25 μM))
Cn1nccc1-c1cccc(NC(=O)N2c3nc(-c4cccc(C(F)(F)F)c4)ccc3N3CC[C@H]2C3)n1 [Example 623]	A (A (EC1.5<1 μM))
O=C(Nc1ccc2c(c1)CCC2)N1c2nc(-c3cccc(C(F)(F)F)c3)ccc2N2CC[C@H]1C2 [Example 624]	B (B (EC1.5 1-25 μM))

Same assay, conditions: Trp mass spectrometry assay; percent maximum fold activation of SIRT1; read-out: Tryp % Fold Act

Compound	Emax [%]
O=C(CCCC[C@@H]1SC[C@@H]2NC(=O)N[C@@H]21)NCCCCCC(=O)NCc1cn(-c2cccc(NC(=O)N3c4nc(-c5cccc(C(F)(F)F)c5)ccc4N4CC[C@H]3C4)c2)nn1 [Example 607]	> 150
O=C1OC2(c3ccc(O)cc3Oc3cc(O)ccc32)c2ccc(NC(=S)NCc3cn(C4=CC(NC(=O)N5c6nc(-c7cccc(C(F)(F)F)c7)ccc6N6CC[C@H]5C6)CC=C4)nn3)cc21 (stereo partly shown) [Example 608]	< 150
Cc1cc(C)n(N)c1CC1C=CC(CCC(=O)NCc2cn(-c3cccc(NC(=O)N4c5nc(-c6cccc(C(F)(F)F)c6)ccc5N5CC[C@H]4C5)c3)nn2)=N1 (stereo partly shown) [Example 622]	< 150

Same assay, conditions: concentration giving 150% activation of SIRT1; Trp peptide substrate

Compound	Tryp AVG EC1.5 (μM)
O=C(Nc1cccc(-c2ccccc2)c1)N1c2nc(-c3cccc(C(F)(F)F)c3)ccc2N2CC[C@H]1C2 [Example 625]	A (A (EC1.5<1 μM))
COC(=O)c1cccc(NC(=O)N2c3nc(-c4cccc(C(F)(F)F)c4)ccc3N3CC[C@H]2C3)c1 [Example 626]	A (A (EC1.5<1 μM))
O=C(NCCCn1ccnc1)N1c2nc(-c3cccc(C(F)(F)F)c3)ccc2N2CC[C@H]1C2 [Example 627]	B (B (EC1.5 1-25 μM))
O=C(Nc1ccc(N2CCCCC2)cc1)N1c2nc(-c3cccc(C(F)(F)F)c3)ccc2N2CC[C@H]1C2 [Example 628]	B (B (EC1.5 1-25 μM))
O=C(Nc1cccc(CN2CCOCC2)c1)N1c2nc(-c3cccc(C(F)(F)F)c3)ccc2N2CC[C@H]1C2 [Example 629]	A (A (EC1.5<1 μM))
O=C(Nc1cncc(F)c1)N1c2nc(-c3cccc(C(F)(F)F)c3)ccc2N2C[C@@H](O)[C@H]1C2 [Example 630]	A (A (EC1.5<1 μM))
O=C(Nc1cccnn1)N1c2nc(-c3cccc(C(F)(F)F)c3)ccc2N2C[C@@H](O)[C@H]1C2 [Example 631]	B (B (EC1.5 1-25 μM))
Cc1nccn1CCCNC(=O)N1c2nc(-c3cccc(C(F)(F)F)c3)ccc2N2CC[C@H]1C2 [Example 632]	C (C (EC1.5>25 μM))
O=C(NCCCc1ccncc1)N1c2nc(-c3cccc(C(F)(F)F)c3)ccc2N2CC[C@H]1C2 [Example 633]	B (B (EC1.5 1-25 μM))
CC(=O)O[C@H]1CN2C[C@H]1N(C(=O)Nc1ccccn1)c1nc(-c3cccc(C(F)(F)F)c3)ccc12 [Example 634]	C (C (EC1.5>25 μM))
CC(=O)N1CCC(c2cccc(NC(=O)N3c4nc(-c5cccc(C(F)(F)F)c5)ccc4N4CC[C@H]3C4)c2)C1 (stereo partly shown) [Example 635]	A (A (EC1.5<1 μM))
CCC(=O)N1CCC(c2cccc(NC(=O)N3c4nc(-c5cccc(C(F)(F)F)c5)ccc4N4CC[C@H]3C4)c2)C1 (stereo partly shown) [Example 636]	A (A (EC1.5<1 μM))
O=C(C1CC1)N1CCC(c2cccc(NC(=O)N3c4nc(-c5cccc(C(F)(F)F)c5)ccc4N4CC[C@H]3C4)c2)C1 (stereo partly shown) [Example 637]	A (A (EC1.5<1 μM))
CC(C)(C)OC(=O)NCc1cnnn1-c1cccc(NC(=O)N2c3nc(-c4cccc(C(F)(F)F)c4)ccc3N3CC[C@H]2C3)c1 [Example 638]	A (A (EC1.5<1 μM))
NCCCCCC(=O)NCc1cn(-c2cccc(NC(=O)N3c4nc(-c5cccc(C(F)(F)F)c5)ccc4N4CC[C@H]3C4)c2)nn1 [Example 639]	A (A (EC1.5<1 μM))
NCc1cnnn1-c1cccc(NC(=O)N2c3nc(-c4cccc(C(F)(F)F)c4)ccc3N3CC[C@H]2C3)c1 [Example 640]	A (A (EC1.5<1 μM))
O=C(Nc1ccc(Oc2ccccc2)cc1)N1c2nc(-c3cccc(C(F)(F)F)c3)ccc2N2CC[C@H]1C2 [Example 641]	C (C (EC1.5>25 μM))
CS(=O)(=O)Nc1cccc(NC(=O)N2c3nc(-c4cccc(C(F)(F)F)c4)ccc3N3CC[C@H]2C3)c1 [Example 642]	A (A (EC1.5<1 μM))
NS(=O)(=O)c1ccc(NC(=O)N2c3nc(-c4cccc(C(F)(F)F)c4)ccc3N3CC[C@H]2C3)cc1 [Example 643]	A (A (EC1.5<1 μM))
COc1cc(NC(=O)N2c3nc(-c4cccc(C(F)(F)F)c4)ccc3N3C[C@@H](O)[C@H]2C3)ncn1 [Example 644]	B (B (EC1.5 1-25 μM))
O=C(Nc1cnccn1)N1c2nc(-c3cccc(C(F)(F)F)c3)ccc2N2C[C@@H](O)[C@H]1C2 [Example 645]	A (A (EC1.5<1 μM))
O=C(Nc1nncs1)N1c2nc(-c3cccc(C(F)(F)F)c3)ccc2N2CC[C@H]1C2 [Example 646]	A (A (EC1.5<1 μM))
CCc1nnc(NC(=O)N2c3nc(-c4cccc(C(F)(F)F)c4)ccc3N3CC[C@H]2C3)s1 [Example 647]	A (A (EC1.5<1 μM))
O=C(Nc1nnc(-c2ccccc2)s1)N1c2nc(-c3cccc(C(F)(F)F)c3)ccc2N2CC[C@H]1C2 [Example 648]	A (A (EC1.5<1 μM))
CC(C)(C)c1nnc(NC(=O)N2c3nc(-c4cccc(C(F)(F)F)c4)ccc3N3CC[C@H]2C3)s1 [Example 649]	B (B (EC1.5 1-25 μM))
O=C(Nc1nnc(C(F)(F)F)s1)N1c2nc(-c3cccc(C(F)(F)F)c3)ccc2N2CC[C@H]1C2 [Example 650]	C (C (EC1.5>25 μM))
O=C(Nc1nnc(-c2cccnc2)s1)N1c2nc(-c3cccc(C(F)(F)F)c3)ccc2N2CC[C@H]1C2 [Example 651]	A (A (EC1.5<1 μM))
O=C(Nc1cccc(Br)n1)N1c2nc(-c3cccc(C(F)(F)F)c3)ccc2N2CC[C@H]1C2 [Example 652]	A (A (EC1.5<1 μM))
O=C(Nc1cccc(-c2ccsc2)n1)N1c2nc(-c3cccc(C(F)(F)F)c3)ccc2N2CC[C@H]1C2 [Example 653]	A (A (EC1.5<1 μM))

Reference: patent US9834558B2, “Substituted bridged urea analogs as sirtuin modulators” (GLAXOSMITHKLINE LLC, priority 2013, dated 2017)
